Patent US5238935A, “N-acyl-tetrahydroisoquinolines as inhibitors of acyl-coenzyme A: cholesterol acyl transferase” (Schering Corporation, priority 1992, dated 1993)

Assays:
[1] = biological target: T1, ACAT (Rattus norvegicus, UniProt Q7TQM4); assay: ACAT assay (in vitro); format: biochemical; conditions: rat liver microsomes; for inhibition at 25 µM / inhibition at 10 µM: read-out: ACAT Inhibition Screen % Inhibition; for IC50: pH 7.4, 37° C., 10 μM acyl CoA, read-out: ACAT Inhibition Screen IC50
T1 construct: Rat liver microsomes are used as the source of ACAT; from tissue; host or cells: rat liver microsomes
T1 sequence (Q7TQM4 1-524): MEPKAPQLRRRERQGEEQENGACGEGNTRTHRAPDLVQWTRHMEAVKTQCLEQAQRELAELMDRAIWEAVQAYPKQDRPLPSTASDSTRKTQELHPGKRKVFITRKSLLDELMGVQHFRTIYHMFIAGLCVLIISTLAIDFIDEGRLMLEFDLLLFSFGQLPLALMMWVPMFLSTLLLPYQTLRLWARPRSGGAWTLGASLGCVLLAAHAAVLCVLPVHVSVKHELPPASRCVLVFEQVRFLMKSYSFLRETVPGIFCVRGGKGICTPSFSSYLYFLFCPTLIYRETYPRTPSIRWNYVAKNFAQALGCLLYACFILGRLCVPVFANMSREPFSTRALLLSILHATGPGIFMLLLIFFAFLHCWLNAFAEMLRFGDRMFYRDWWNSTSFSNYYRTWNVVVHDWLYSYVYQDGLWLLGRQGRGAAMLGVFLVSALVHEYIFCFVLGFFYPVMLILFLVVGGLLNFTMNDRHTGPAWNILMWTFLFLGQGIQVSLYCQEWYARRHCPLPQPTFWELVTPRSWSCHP
Protocol: The in vitro activity of compounds of formula I or Ia can be determined by the following procedure.
This assay measures the activity of ACAT by measuring the ACAT-mediated transfer of tritiated oleic acid from acyl-CoA to cholesterol to give labelled cholesterol oleate. Rat liver microsomes are used as the source of ACAT. Assays are performed in round bottom microtiterplates using a total incubation volume of 50μL. Each incubation well receives 10 μL assay buffer (0.5M KHPO4, 10 μM dithiothreitol, pH 7.4), 7.5 μL of 40 mg/mL BSA (Bovine Serum Albumin) and 12.5 μg of microsomal protein. The test compound (in sufficient amount to bring the final concentration to from 0.1 to 25 μM), reference compound, or vehicle control is added and the final volume brought to 47 μL. The microtiterplate is then floated on the surface of a 37° C. water bath for fifteen minutes. Incubations are started by the addition of 3 μL ^3 H-acyl CoA (1 μCi/well, final concentration of 10 μM acyl CoA). The plate is then returned to the water bath for 15 minutes. The incubations are then terminated by application of 15 μL from each incubation to individual lanes on a thin layer plate (Silica Gel GF 20×20 cm). Standards are applied to several lanes so that the cholesterol ester band can be identified. After drying, the plates are eluted with 90:10:1 petroleum ether:diethyl ether:acetic acid. The standards are visualized via iodine vapor, and the regions corresponding to cholesterol ester are scraped into 7 mL scintillation vials. 4 mL of scintillant are added to each vial, and the radioactivity quantified. Background count is determined by the boiled controls. Full activity is determined by activity in the presence of vehicle. The percent inhibition is calculated by subtracting the background from both control and test samples, and the test value is calculated as a percentage of the control. For IC50 determinations, the inhibition is plotted against drug doses on a log scale and the concentration at which 50% inhibiting is obtained is determined.

[2] = biological target: T1, ACAT; assay: ACAT assay (in vitro); format: biochemical; conditions: rat liver microsomes, read-out: ACAT Inhibition Screen % Inhibition

CCCCCCCC/C=C\CCCCCCCC(=O)N1CCc2cc(OC)c(OC)cc2C1 [R3=H, R4=H, R5=H, R2a=CH3O, R2b=CH3O]
inhibition at 25 µM [1]: 100%
IC50 [1]: 0.74 µM

CCCCCCCC/C=C\CCCCCCCC(=O)N1Cc2cc(OC)c(OC)cc2CC1c1ccc(OC)c(OC)c1 (centres unmarked) [N-[6,7-dimethoxy-3-(3,4-dimethoxyphenyl)-1,2,3,4-tetrahydroisoquinoline]-9-Z-octadecenamide]
inhibition at 25 µM [1]: 67%

CCCCCCCC/C=C/CCCCCCCC(=O)N1CCc2cc(OC)c(OC)cc2C1c1ccccc1 (centres unmarked)
inhibition at 10 µM [1]: 87%
IC50 [1]: 8 µM

CCCCCCCC/C=C\CCCCCCCC(=O)N1CCc2cc(C)c(OC)cc2C1CCc1ccc(Cl)cc1 (centres unmarked)
inhibition at 25 µM [1]: 4%

CCCCCCCC/C=C\CCCCCCCC(=O)N1Cc2cc(OC)c(OC)cc2C(c2ccccc2)C1 (centres unmarked) [R3=H, R4=H, R5=C6H5, R2a=CH3O, R2b=CH3O, N-(6,7-dimethoxy-4-phenyl-1,2,3,4-tetrahydroisoquinoline)-9-Z-octadecenamid]
inhibition at 25 µM [1]: 83%
IC50 [1]: 2.4 µM

CCCCCCCC/C=C\CCCCCCCC(=O)N1CCc2cc(O)c(O)cc2C1Cc1ccccc1 (centres unmarked) [R3=C6H5CH2, R4=H, R5=H, R2a=OH, R2b=OH, N-(1-benzyl-6,7-dihydroxy-1,2,3,4-tetrahydroisoquinoline)-9-Z-octadecenamide]
inhibition at 25 µM [1]: 73%

CCCCCCCC/C=C\CCCCCCCC(=O)N1Cc2cc(OC)c(OC)cc2CC1c1ccccc1 (centres unmarked) [R3=H, R4=C6H5, R5=H, R2a=CH3O, R2b=CH3O, N-(6,7-dimethoxy-3-phenyl1,2,3,4-tetrahydroisoquinoline)-9-Z-octadecenamide]
inhibition at 25 µM [1]: 86%

CCCCCCCC/C=C\CCCCCCCC(=O)N1CCc2cc(OC)c(OC)cc2C1Cc1ccc(OC)c(OC)c1 (centres unmarked)
inhibition at 25 µM [1]: 91%

CCCCCCCC/C=C\CCCCCCCC(=O)N1CCc2ccccc2C1Cc1ccccc1 (centres unmarked) [R3=C6H5CH2, R4=H, R5=H, R2a=H, R2b=H]
inhibition at 25 µM [1]: 81%

CCCCCCCC/C=C\CCCCCCCC(=O)N1CCc2cc(OC)c(OC)cc2C1Cc1ccccc1 (centres unmarked)
inhibition at 25 µM [1]: 63%

CCCCCCCC/C=C\CCCCCCCC(=O)N1CCc2ccccc2C1 [R3=H, R4=H, R5=H, R2a=H, R2b=H]
IC50 [1]: 12 µM
inhibition at 100 µM [2]: 83%

CCCCCCCC/C=C\CCCCCCCC(=O)N1CCc2ccccc2C1c1cc(Cl)ccc1NC (centres unmarked) [N-[1-(2-methylamino-5-chlorophenyl)-1,2,3,4-tetrahydroisoquinoline]-9-Z-octadecenamide]
inhibition at 10 µM [1]: 10%

CCCCCCCC/C=C\CCCCCCCC(=O)N1CCc2cc(OC)c(OC)cc2C1c1ccccc1 (centres unmarked) [N-(6,7-dimethoxy-1-phenyl-1,2,3,4-tetrahydroisoquinoline)-9-Z-octadecenamid]
inhibition at 10 µM [1]: 66%
